Tests used:
PDE4B1 = target: T1, PDE4B1 (Homo sapiens, UniProt Q07343); test: Inhibition of PDE4B1 activity (SPA, [3H]cAMP); assay type: biochemical; conditions: recombinant PDE4B1, 0.5 μM cAMP; binned: below 8 / between 8 and 9; read-out: PDE4B1 inhibitory values measured as −logIC50 (converted)
T1 construct: made in house; host or cells: SF21 insect cells (baculovirus; virus prepared in SF9 cells)
Procedure: The PDE4B1 (GB no. L20966) was a gift of Prof. M. Conti (Stanford University, USA). It was amplified from the original plasmid (pCMV5) via PCR with primers Rb18 (5′-[…]-3′) and Rb10 (5′-[…]-3′) and cloned into the pCR-Bac vector (Invitrogen, Groningen, NL).
The recombinant baculovirus was prepared by means of homologous recombination in SF9 insect cells. The expression plasmids were cotransfected with Baculo-Gold DNA (Pharmingen, Hamburg) using a standard protocol (Pharmingen, Hamburg). Wt virus-free recombinant virus supernatants were selected using plaque assay methods. After that, high-titre virus supernatants were prepared by amplifying 3 times. PDE4B1 was expressed in SF21 cells by infecting 2×10^6 cells/ml with an MOI (multiplicity of infection) between 1 and 10 in the serum-free SF900 medium (GIBCO Life Technologies, Karlsruhe, Germany). The cells were cultured at 28° C. for 48-72 hours, after which they were pelleted for 5-10 min at 1000×g and 4° C.
The SF21 insect cells were resuspended, at a concentration of approx. 10^7 cells/ml, in ice-cold (4° C.) homogenization buffer (20 mM Tris, pH 8.2, containing the following additions: 140 mM NaCl, 3.8 mM KCl, 1 mM EGTA, 1 mM MgCl2, 10 mM β-mercaptoethanol, 2 mM benzamidine, 0.4 mM Pefablock, 10 μM leupeptin, 10 μM pepstatin A, 5 μM trypsin inhibitor) and disrupted by ultrasonication. The homogenate was then centrifuged for 10 min at 1000×g and the supernatant was stored at −80° C. until subsequent use (see below). The protein content was determined by the Bradford method (BioRad, Munich) using BSA (Bovine serum albumin) as the standard.
PDE4B1 activities were measured in a 96-well platform using SPA (scintillation proximity assay) yttrium silicate beads (RPNQ1050 from GE Healthcare). In a first step the PDE activity operated hydrolysis of either [^3H] cAMP (substrate) into [^3H] 5′AMP. In a second step substrate and product were distinguished following addition of SPA yttrium silicate beads. Indeed, in the presence of zinc sulphate the linear [^3H] […] Close proximity of bound [^3H] […] The test volume was 100 μl and finally contained 20 mM Tris buffer (pH 7.4), 0.1 mg/ml of BSA, 5 mM Mg^2+, 0.5 μM cAMP (including about 50,000 cpm of [3H]cAMP) as substrate, 1 μl of the respective substance dilution in DMSO and sufficient recombinant PDE (1000×g supernatant, see above) to ensure that 10-20% of the cAMP was converted under the said experimental conditions. […] After a preincubation of 5 min at 37° C., the reaction was commenced by adding the substrate (cAMP) and the assays were incubated for a further 15 min. Reactions were terminated by adding SPA beads (50 μl). In agreement with the manufacturer's instructions, the SPA beads had previously been resuspended in water, but were then diluted 1:3 (v/v) in water. This diluted solution further contained 3 mM IBMX (isobutylmethylxanthine) to ensure a complete block of PDE activity. Once the beads were sedimented (>30 min), the MTP's (microtiter plate) were analyzed in commercially available luminescence detection devices. The corresponding IC50 values of the compounds for inhibition of PDE4B1 activity were determined from the concentration-effect curves by means of non-linear regression.
For the following compounds PDE4B1 inhibitory values [measured as −logIC50 (mol/l)] below 8 and between 8 and 9 have been determined. The numbers of the compounds correspond to the numbers of the examples.

human PDE5 = target: T2, human PDE5 (Homo sapiens, UniProt O76074); test: Inhibition of PDE5 activity (SPA, [3H]cGMP, platelet lysate); assay type: biochemical; conditions: 0.5 μM cGMP, binned: below 8 / between 8 and 9, read-out: PDE5 inhibitory values measured as −logIC50 (converted)
T2 construct: from tissue; host or cells: human platelets from fresh donor blood (platelet lysate)
Procedure: As a source for human PDE5, platelets were used. For that purpose, 150 ml fresh blood from human donors anticoagulated with citrate [final concentration 0.3% (w/v)] was centrifuged at 200 g for 10 min to obtain the so-called platelet-rich-plasma (PRP) as a supernatant. 1/10 volume of ACD solution (85 mM Na3-citrate, 111 mM D-glucose, 71 mM citric acid, pH 4.4) was added to 9/10 volume of PRP. After centrifugation (1,400 g, 10 min) the cell pellet was resuspended in 3 ml homogenization buffer (NaCl 140 mM, KCl 3.8 mM, EGTA (ethylene glycol tetraacetic acid) 1 mM, MgCl2 1 mM, Tris-HCl 20 mM, beta-mercaptoethanol 1 mM, pH 8.2) plus protease-inhibitor mix resulting in final concentrations of 0.5 mM Pefablock (Roche), 10 μM Leupeptin, 5 μM Trypsine inhibitor, 2 mM Benzamidin and 10 μM Pepstatin A. The suspension was sonicated and thereafter centrifuged for 15 min at 10,000 g. The resulting supernatant (platelet lysate) was used for enzymatic assays.
PDE5 activities were measured in a 96-well platform using SPA (scintillation proximity assay) yttrium silicate beads (RPNQ1050 from GE Healthcare). In a first step the PDE activity operated hydrolysis of either [^3H] cGMP (substrate) into [^3H] 5′GMP. In a second step substrate and product were distinguished following addition of SPA yttrium silicate beads. Indeed, in the presence of zinc sulphate the linear [^3H] […] Close proximity of bound [^3H] […] The test volume was 100 μl and contained 20 mM Tris buffer (pH 7.4), 0.1 mg of BSA (bovine serum albumin)/ml, 5 mM Mg^2+, 1 μM motapizone (PDE3 Inhibitor), 10 nM PDE2 inhibitor 2-(3,4-dimethoxybenzyl)-7-[(1R,2R)-2-hydroxy-1-(2-phenylethyl)propyl]-5-methylimidazo[5,1-f][1,2,4]triazin-4(3H)-one, 0.5 μM cGMP (cyclic guanosine monophosphate) (including about 50,000 cpm of [3H]cGMP as a tracer) (substrate), 1 μl of the respective compound dilution in dimethylsulfoxide (DMSO) and sufficient PDE5-containing platelet lysat (10,000×g supernatant, see above) to ensure that 10-20% of the cGMP was converted under the said experimental conditions. […] After a preincubation of 5 min at 37° C., the reaction was commenced by adding the substrate (cGMP) and the assay was incubated for a further 15 min. The reaction was terminated by adding SPA beads (50 μl). In agreement with the manufacturer's instructions, the SPA beads had previously been resuspended in water, but were then diluted 1:3 (v/v) in water. This diluted solution also contained 3 mM 8-methoxymethyl-3-isobutyl-1-methylxanthine (IBMX) to ensure a complete block of PDE activity. Once the beads were sedimented (>30 min), the MTP's were analyzed in commercially available luminescence detection devices. The corresponding IC50 values of the compounds for inhibition of PDE activity were determined from the concentration-effect curves by means of non-linear regression.
For the following compounds PDE5 inhibitory values [measured as −logIC50 (mol/l)] below 8 and between 8 and 9 have been determined. The numbers of the compounds correspond to the numbers of the examples.

T1 sequence (Q07343 whole entry): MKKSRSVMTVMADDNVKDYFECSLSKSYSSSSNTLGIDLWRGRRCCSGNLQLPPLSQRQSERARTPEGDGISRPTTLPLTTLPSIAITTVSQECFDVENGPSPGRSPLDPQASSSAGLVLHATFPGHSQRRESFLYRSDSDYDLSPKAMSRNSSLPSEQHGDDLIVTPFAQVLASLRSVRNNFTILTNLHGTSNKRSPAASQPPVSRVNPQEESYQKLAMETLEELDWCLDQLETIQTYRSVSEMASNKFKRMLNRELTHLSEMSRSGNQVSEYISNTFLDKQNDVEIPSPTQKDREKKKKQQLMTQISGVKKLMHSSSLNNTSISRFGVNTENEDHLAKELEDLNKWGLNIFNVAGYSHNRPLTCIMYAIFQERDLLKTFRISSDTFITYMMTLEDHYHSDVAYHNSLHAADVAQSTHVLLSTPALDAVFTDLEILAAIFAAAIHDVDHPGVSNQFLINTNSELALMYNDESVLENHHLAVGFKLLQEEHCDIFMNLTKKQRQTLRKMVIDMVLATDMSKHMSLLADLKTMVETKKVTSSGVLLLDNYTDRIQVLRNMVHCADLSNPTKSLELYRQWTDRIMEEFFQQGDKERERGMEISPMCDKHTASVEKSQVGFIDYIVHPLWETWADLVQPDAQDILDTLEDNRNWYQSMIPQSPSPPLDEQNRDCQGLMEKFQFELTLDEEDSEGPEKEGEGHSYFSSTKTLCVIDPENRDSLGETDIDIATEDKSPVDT

## CCOc1cc2c(cc1OC)C(c1ccc(C(=O)N3CCC(n4c(=O)c5sc(-c6cc(F)ccc6OC)cc5n(Cc5ccc(OC)c(F)c5)c4=O)CC3)cc1)=N[C@@H]1CCSC[C@H]21 [Example 10, 3-[1-({4-[(4aR,10bR)-9-ethoxy-8-methoxy-3,4,4a,10b-tetrahydro-1H-thiopyrano[4,3-c]isoquinolin-6-yl]phenyl}carbonyl)piperidin-4-yl]-1-(3-fluoro-4-methoxybenzyl)-6-(5-fluoro-2-methoxyphenyl)thieno[3,2-d]pyrimidine-2,4(1H,3H)-dione]
PDE4B1
  IC50: 1 to 10 nM
Human PDE5
  IC50: 1 to 10 nM

## CCOc1cc2c(cc1OC)C(c1ccc(C(=O)N3CCC(n4c(=O)c5sc(-c6cc(OC)ccc6OC)cc5n(Cc5ccc(OC)c(F)c5)c4=O)CC3)cc1)=N[C@@H]1CCSC[C@H]21 [Example 11, 6-(2,5-dimethoxyphenyl)-3-[1-({4-[(4aR,10bR)-9-ethoxy-8-methoxy-3,4,4a,10b-tetrahydro-1H-thiopyrano[4,3-c]isoquinolin-6-yl]phenyl}carbonyl)piperidin-4-yl]-1-(3-fluoro-4-methoxybenzyl)thieno[3,2-d]pyrimidine-2,4(1H,3H)-dione]
PDE4B1
  IC50: 1 to 10 nM
Human PDE5
  IC50: 1 to 10 nM

## CCOc1cc2c(cc1OC)C(c1ccc(C(=O)N3CCC(n4c(=O)c5sc(-c6ccccc6F)cc5n(Cc5ccc(OC)c(F)c5)c4=O)CC3)cc1)=N[C@@H]1CCSC[C@H]21 [Example 12, 3-[1-({4-[(4aR,10bR)-9-ethoxy-8-methoxy-3,4,4a,10b-tetrahydro-1H-thiopyrano[4,3-c]isoquinolin-6-yl]phenyl}carbonyl)piperidin-4-yl]-1-(3-fluoro-4-methoxybenzyl)-6-(2-fluorophenyl)thieno[3,2-d]pyrimidine-2,4(1H,3H)-dione]
PDE4B1
  IC50: 1 to 10 nM
Human PDE5
  IC50: 1 to 10 nM

## CCOc1cc2c(cc1OC)C(c1ccc(C(=O)N3CCC(n4c(=O)c5sc(-c6ccc(F)cc6)cc5n(Cc5ccc(OC)c(F)c5)c4=O)CC3)cc1)=N[C@@H]1CCSC[C@H]21 [Example 13, 3-[1-({4-[(4aR,10bR)-9-ethoxy-8-methoxy-3,4,4a,10b-tetrahydro-1H-thiopyrano[4,3-c]isoquinolin-6-yl]phenyl}carbonyl)piperidin-4-yl]-1-(3-fluoro-4-methoxybenzyl)-6-(4-fluorophenyl)thieno[3,2-d]pyrimidine-2,4(1H,3H)-dione]
PDE4B1
  IC50: 1 to 10 nM
Human PDE5
  IC50: 1 to 10 nM

## CCOc1cc2c(cc1OC)C(c1ccc(C(=O)N3CCC(n4c(=O)c5sc(-c6ccc(F)cc6OC)cc5n(Cc5cc(F)c(OC)c(F)c5)c4=O)CC3)cc1)=N[C@@H]1CCSC[C@H]21 [Example 14, 1-(3,5-difluoro-4-methoxybenzyl)-3-[1-({4-[(4aR,10bR)-9-ethoxy-8-methoxy-3,4,4a,10b-tetrahydro-1H-thiopyrano[4,3-c]isoquinolin-6-yl]phenyl}carbonyl)piperidin-4-yl]-6-(4-fluoro-2-methoxyphenyl)thieno[3,2-d]pyrimidine-2,4(1H,3H)-dione]
PDE4B1
  IC50: > 10 nM
Human PDE5
  IC50: 1 to 10 nM

## CCOc1cc2c(cc1OC)C(c1ccc(C(=O)N3CCC(n4c(=O)c5sc(-c6ccc(F)cc6OC)cc5n(Cc5ccc(OC)c(F)c5F)c4=O)CC3)cc1)=N[C@@H]1CCSC[C@H]21 [Example 15, 1-(2,3-difluoro-4-methoxybenzyl)-3-[1-({4-[(4aR,10bR)-9-ethoxy-8-methoxy-3,4,4a,10b-tetrahydro-1H-thiopyrano[4,3-c]isoquinolin-6-yl]phenyl}carbonyl)piperidin-4-yl]-6-(4-fluoro-2-methoxyphenyl)thieno[3,2-d]pyrimidine-2,4(1H,3H)-dione]
PDE4B1
  IC50: 1 to 10 nM
Human PDE5
  IC50: > 10 nM

## CCOc1cc2c(cc1OC)C(c1ccc(C(=O)N3CCC(n4c(=O)c5sc(-c6ccc(F)cc6OC)cc5n(Cc5ccc(C)c(F)c5)c4=O)CC3)cc1)=N[C@@H]1CCSC[C@H]21 [Example 16, 3-[1-({4-[(4aR,10bR)-9-ethoxy-8-methoxy-3,4,4a,10b-tetrahydro-1H-thiopyrano[4,3-c]isoquinolin-6-yl]phenyl}carbonyl)piperidin-4-yl]-6-(4-fluoro-2-methoxyphenyl)-1-(3-fluoro-4-methylbenzyl)thieno[3,2-d]pyrimidine-2,4(1H,3H)-dione]
PDE4B1
  IC50: 1 to 10 nM
Human PDE5
  IC50: 1 to 10 nM

## CCOc1cc2c(cc1OC)C(c1ccc(C(=O)N3CCC(n4c(=O)c5sc(-c6ccc(F)cc6OC)cc5n(Cc5ccccc5)c4=O)CC3)cc1)=N[C@@H]1CCSC[C@H]21 [Example 17, 1-benzyl-3-[1-({4-[(4aR,10bR)-9-ethoxy-8-methoxy-3,4,4a,10b-tetrahydro-1H-thiopyrano[4,3-c]isoquinolin-6-yl]phenyl}carbonyl)piperidin-4-yl]-6-(4-fluoro-2-methoxyphenyl)thieno[3,2-d]pyrimidine-2,4(1H,3H)-dione]
PDE4B1
  IC50: 1 to 10 nM
Human PDE5
  IC50: > 10 nM

## CCOc1cc2c(cc1OC)C(c1ccc(C(=O)N3CCC(n4c(=O)c5sc(-c6ccc(F)cc6C)cc5n(Cc5ccc(OC)c(F)c5)c4=O)CC3)cc1)=N[C@@H]1CCSC[C@H]21 [Example 18, 3-[1-({4-[(4aR,10bR)-9-ethoxy-8-methoxy-3,4,4a,10b-tetrahydro-1H-thiopyrano[4,3-c]isoquinolin-6-yl]phenyl}carbonyl)piperidin-4-yl]-1-(3-fluoro-4-methoxybenzyl)-6-(4-fluoro-2-methylphenyl)thieno[3,2-d]pyrimidine-2,4(1H,3H)-dione]
PDE4B1
  IC50: > 10 nM
Human PDE5
  IC50: 1 to 10 nM

Source: US20140113877A1, “NOVEL 3,4,4A,10B-TETRAHYDRO-1H-THIOPYRANO[4,3-C] ISOQUINOLINE COMPOUNDS” (Takeda GmbH, priority 2011, published 2014)
